How the values were obtained:
[1] = refractive index (Na D-line) (dimensionless); xn = mol fraction of the nth substance listed; conditions: 101 kPa, Liquid, Standard Abbe refractometry
[2] = xn = mol fraction of the nth substance listed; conditions: 101 kPa, Liquid; for viscosity: Capillary tube (Ostwald / Ubbelohde) method; for mass density: Vibrating tube method

C1C[C@@H]2[C@H]3CC[C@H](C3)[C@@H]2C1 [exo-tetrahydrodicyclopentadiene] + C1CCCCC1
Conditions	mass density, [2] [kg/m3]	refractive index, [1]	viscosity, [2] [mPa·s]
293.15 K, x1 = 0.0998	799.53	1.4357	1.13
293.15 K, x1 = 0.2006	819.11	1.4426	1.296
293.15 K, x1 = 0.3003	837.1	1.4495	1.462
293.15 K, x1 = 0.3996	853.82	1.4564	1.633
293.15 K, x1 = 0.4987	869.42	1.4624	1.814
293.15 K, x1 = 0.6005	884.43	1.4683	2.016
293.15 K, x1 = 0.7002	898.3	1.4732	2.231
293.15 K, x1 = 0.8008	911.5	1.4781	2.463
293.15 K, x1 = 0.9	923.87	1.4829	2.72
293.15 K, x1 = 1	935.72	1.4874	2.992
298.15 K, x1 = 0.0998	794.92	–	1.032
298.15 K, x1 = 0.2006	814.56	–	1.18
298.15 K, x1 = 0.3003	832.65	–	1.327
298.15 K, x1 = 0.3996	849.45	–	1.481
298.15 K, x1 = 0.4987	865.15	–	1.645
298.15 K, x1 = 0.6005	880.23	–	1.828
298.15 K, x1 = 0.7002	894.2	–	2.024
298.15 K, x1 = 0.8008	907.48	–	2.236
298.15 K, x1 = 0.9	919.92	–	2.466
298.15 K, x1 = 1	931.84	–	2.71
303.15 K, x1 = 0.0998	790.27	1.4305	0.948
303.15 K, x1 = 0.2006	809.99	1.4373	1.08
303.15 K, x1 = 0.3003	828.19	1.4449	1.212
303.15 K, x1 = 0.3996	845.07	1.4512	1.351
303.15 K, x1 = 0.4987	860.86	1.4582	1.5
303.15 K, x1 = 0.6005	876.06	1.4633	1.668
303.15 K, x1 = 0.7002	890.08	1.4689	1.846
303.15 K, x1 = 0.8008	903.43	1.4739	2.037
303.15 K, x1 = 0.9	915.95	1.4789	2.248
303.15 K, x1 = 1	927.94	1.4831	2.467
308.15 K, x1 = 0.0998	785.6	–	0.874
308.15 K, x1 = 0.2006	805.41	–	0.993
308.15 K, x1 = 0.3003	823.69	–	1.113
308.15 K, x1 = 0.3996	840.68	–	1.239
308.15 K, x1 = 0.4987	856.56	–	1.375
308.15 K, x1 = 0.6005	871.85	–	1.528
308.15 K, x1 = 0.7002	885.97	–	1.691
308.15 K, x1 = 0.8008	899.4	–	1.866
308.15 K, x1 = 0.9	911.98	–	2.056
308.15 K, x1 = 1	924.02	–	2.255
313.15 K, x1 = 0.0998	780.9	1.4238	0.808
313.15 K, x1 = 0.2006	800.82	1.4319	0.917
313.15 K, x1 = 0.3003	819.19	1.439	1.026
313.15 K, x1 = 0.3996	836.28	1.4456	1.141
313.15 K, x1 = 0.4987	852.26	1.453	1.267
313.15 K, x1 = 0.6005	867.63	1.4583	1.407
313.15 K, x1 = 0.7002	881.85	1.4642	1.555
313.15 K, x1 = 0.8008	895.35	1.4689	1.715
313.15 K, x1 = 0.9	907.1	1.4737	1.888
313.15 K, x1 = 1	920.11	1.4786	2.069
318.15 K, x1 = 0.0998	–	–	0.751
318.15 K, x1 = 0.2006	–	–	0.848
318.15 K, x1 = 0.3003	–	–	0.949
318.15 K, x1 = 0.3996	–	–	1.055
318.15 K, x1 = 0.4987	–	–	1.169
318.15 K, x1 = 0.6005	–	–	1.298
318.15 K, x1 = 0.7002	–	–	1.435
318.15 K, x1 = 0.8008	–	–	1.581
318.15 K, x1 = 0.9	–	–	1.741
318.15 K, x1 = 1	–	–	1.907
